Data on two compounds can be found in ChEMBL document CHEMBL1148081, “Corticatic acids A-C, antifungal acetylenic acids from the marine sponge, Petrosia corticata” (J Nat Prod, 1994).

Active and inactive are the calls of the source. No cut-off for these calls is given here.

The subject of the experiment is Umbelopsis ramanniana. Nature of the experiment: Antimicrobial activity against Mortierella ramanniana. The experiment is classed as functional, organism-based.

Turning to `C#CC(O)/C=C/CCCCCC#CC/C=C\CCCCCCCCCCC/C=C\C#CC(=O)O` (configuration not stated), the result was Active.
As for `C#CC(O)/C=C/CCCCCC#CC/C=C\CCCCCCCCCCC/C=C/C#CC(=O)O` (configuration not stated), the entry is “Active”.
